Results on 71 compounds are retold here after PubChem BioAssay AID624285 (Broad Institute, 2012).

The structures appear in SMILES notation. The source made the active and inactive calls.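 How the source made its calls: active means signal-decreasing dose-response curve whose fitted half-maximal concentration is at or below twice the highest valid tested dose; inconclusive means flat fit at 30 to 70% signal loss, or poor fit; inactive means the rest.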

The nature of the first experiment: cytotoxicity in mammalian cells, dose response, cytotoxicity control for PDI inhibitor project, cell-based, 24 h, luminescence, cherry-picked samples (AID 624285). The note with it: NIH3T3/HeLa viability, CellTiter-Glo ATP luminescence, 24 h; at 30 µM (top of the series).
As for `COc1ccc(CN(C)C[C@@H]2Oc3ccc(NC(=O)Nc4ccccc4)cc3CC(=O)N([C@H](C)CO)C[C@@H]2C)cc1`, the activity change, negative = cytotoxicity is -5.13% (inactive).

The same experiment, now with this note: NIH3T3/HeLa viability, CellTiter-Glo ATP luminescence, 24 h; at 35 µM (top of the series).
With `O=c1[nH]c(C2CCN(S(=O)(=O)c3ccc(C(F)(F)F)cc3)CC2)nc2c1nnn2Cc1ccc(F)cc1`, the activity change, negative = cytotoxicity is -22.8% (inactive).

Regarding `O=C(NCCN1CCOCC1)c1cccnc1SCc1ccccc1Cl`, the activity change, negative = cytotoxicity was -5.22% (inactive).

Turning to `S=C(NCCN1CCOCC1)Nc1ccc(Br)cc1`, the activity change, negative = cytotoxicity is -9.3% (inactive).

As for `CCOc1ccc(NC(=O)CN(C)C(=O)c2cc(C)nc3ccccc23)cc1OCC`, the activity change, negative = cytotoxicity was -13.4% (inactive).

In the case of `O=C(CCc1ccc(O)cc1)NN=Cc1cc(Br)ccc1O`, the activity change, negative = cytotoxicity was -12.9% (inactive).

With `CCCCn1c(N)c(N(CC(C)C)C(=O)c2cc(-c3ccncc3)nc3ccccc23)c(=O)[nH]c1=O`, the activity change, negative = cytotoxicity is -9.75% (inactive).

For `COC(=O)CC1OCC=C2CN3CCC45C6=CC(=O)C(=O)C([N+](=O)[O-])=C6NC4C1C2CC35` (stereo unspecified), the activity change, negative = cytotoxicity is -13% (inactive).

As to `CCOC(C(=O)OCCCN(CC)CC)(c1ccccc1)c1ccccc1`, the activity change, negative = cytotoxicity was -17.8% (inactive).

For `Cc1cc(C)cc(OCC(=O)Nc2ccccc2C(=O)N2CCOCC2)c1`, the activity change, negative = cytotoxicity is -11.8% (inactive).

`CNc1ncnc2c1ncn2[C@H]1CN(Cc2cccc3ccccc23)C[C@@H](CO)O1`: the activity change, negative = cytotoxicity is -19.8% (inactive).

Regarding `O=C(/C=C/c1ccccc1)Nc1scc(-c2ccccc2)c1C(=O)O`, the activity change, negative = cytotoxicity is -11.6% (inactive).

Consider `C[C@@H]1O[C@@H](OC[C@H]2O[C@@H](Oc3c(-c4ccc(O)c(O)c4)oc4cc(O)cc(O)c4c3=O)[C@H](O)[C@@H](O)[C@@H]2O)[C@H](O)[C@H](O)[C@H]1O`, for which the activity change, negative = cytotoxicity is -2.56% (inactive).

Consider `CCOC(=O)c1oc2cccc(O)c2c1CN(Cc1ccccc1)C(C)=O`, for which the activity change, negative = cytotoxicity is -17.2% (inactive).

Turning to `COCc1[nH][nH]c(=O)c1C=Nc1ccc(F)cc1F`, the activity change, negative = cytotoxicity is -11.4% (inactive).

Take `CC(=O)NC1(c2nnnn2CCOC(=O)Nc2ccc(Cl)cc2)CCCCC1`: the activity change, negative = cytotoxicity was 5.78% (inactive).

Consider `CC1(C)CC[C@]2(C(=O)O)CC[C@]3(C)C(=CC[C@@H]4[C@@]5(C)CC[C@H](O[C@@H]6O[C@H](C(=O)O)[C@@H](O)[C@H](O[C@@H]7OC[C@H](O)[C@H](O)[C@H]7O)[C@H]6O)C(C)(C)[C@@H]5CC[C@]43C)[C@@H]2C1`, for which the activity change, negative = cytotoxicity is -3.34% (inactive).

In the case of `COc1cc2c(cc1OC)C1C(C(=O)Nc3ccccc3N3CCN(C)CC3)c3ccccc3C(=O)N1CC2` (stereo unspecified), the activity change, negative = cytotoxicity is -11.8% (inactive).

In the case of `O=C(c1cc([N+](=O)[O-])ccc1N1CCOCC1)N1CCN(c2ccc([N+](=O)[O-])cc2)CC1`, the activity change, negative = cytotoxicity was -16.5% (inactive).

Regarding `Cc1noc(C)c1S(=O)(=O)Nc1ccc2c(c1)CC(=O)N([C@@H](C)CO)C[C@@H](C)[C@H](CN(C)S(=O)(=O)c1ccc(F)cc1)O2`, the activity change, negative = cytotoxicity was -10.5% (inactive).

For `O=C1NC(Cc2ccc(O)cc2)c2nc3ccccc3c(=O)n2-c2ncccc21` (stereo unspecified), the activity change, negative = cytotoxicity is -7.17% (inactive).

In the case of `CCCCn1c(SCC(=O)Nc2ccc(C)c(S(=O)(=O)N3CCOCC3)c2)nnc1C(CC)N(C)C` (stereo unspecified), the activity change, negative = cytotoxicity is 1.22% (inactive).

For the compound `CC(NC(=O)COC(=O)Cc1ccccc1[N+](=O)[O-])c1ccccc1` (stereo unspecified), the activity change, negative = cytotoxicity was -0.036% (inactive).

`COc1cc(C(C)=O)ccc1OCC(=O)NCCCn1nc(C)cc1C`: the activity change, negative = cytotoxicity is -1.82% (inactive).

Consider `CC1(C(=O)NS(=O)(=O)c2ccccc2Cl)CCN1C(=O)c1ccccc1CCc1ccccc1` (stereo unspecified), for which the activity change, negative = cytotoxicity is -8.92% (inactive).

Take `CCN1C(=O)C2C(c3ccccc3F)NC(Cc3ccc(O)cc3)(C(=O)OC)C2C1=O` (stereo unspecified): the activity change, negative = cytotoxicity is -13.9% (inactive).

For `COc1ccc(C2C(C(C)=O)=C(O)C(=O)N2CCc2c[nH]c3ccccc23)cc1OC` (stereo unspecified), the activity change, negative = cytotoxicity is -3.29% (inactive).

For `CCc1ccc(NC(=O)Nc2ccncc2)cc1`, the activity change, negative = cytotoxicity is -3.55% (inactive).

Take `C=CCn1c(C(CCCC)CC(O)COCC(C)C)n[nH]c1=S` (stereo unspecified): the activity change, negative = cytotoxicity was -17.2% (inactive).

`Cc1ccc(CN(c2ccc(C(=O)Nc3ccc4c(c3)OCO4)cc2)S(C)(=O)=O)cc1`: the activity change, negative = cytotoxicity was -9.66% (inactive).

As for `Cc1ccc(O)c(NC(=O)CSc2n[nH]c(-c3ccccc3)n2)c1`, the activity change, negative = cytotoxicity was -16.4% (inactive).

As to `O=C(N/N=C/c1cccc([N+](=O)[O-])c1)c1cnccn1`, the activity change, negative = cytotoxicity is -7.37% (inactive).

`C=CCn1c(SCC(=O)Nc2ccc(N(C)C)cc2)nnc1-c1cccc(C)c1`: the activity change, negative = cytotoxicity was -10.1% (inactive).

In the case of `CCN(CC(=O)Nc1ccc2c(c1)OCCO2)C(=O)CC1CCCC1`, the activity change, negative = cytotoxicity is -11.8% (inactive).

Take `Cc1ccc(-n2ncc3c(=O)[nH]c(SCC(=O)N4CCCc5ccccc54)nc32)cc1`: the activity change, negative = cytotoxicity is -1.87% (inactive).

As to `CCOC(=O)C1(CC2CC2)CCN(Cc2cc(Cl)c(O)c(OC)c2)CC1`, the activity change, negative = cytotoxicity is -20.4% (inactive).

Turning to `COc1ccccc1NS(=O)(=O)c1cccc(C(=O)NCC2(N(C)C)CCCCC2)c1`, the activity change, negative = cytotoxicity is -8.59% (inactive).

As for `O=c1c(OC2OC(CO)C(O)C(O)C2O)c(-c2ccc(O)c(O)c2)oc2cc(O)cc(O)c12` (stereo unspecified), the activity change, negative = cytotoxicity is -0.384% (inactive).

`CC(OC(=O)c1cccc(S(=O)(=O)N(C)C)c1)C(=O)NCC(=O)Nc1ccc(F)c(F)c1F` (stereo unspecified): the activity change, negative = cytotoxicity is -4.24% (inactive).

Consider `O=C(NC(Cc1ccc(O)cc1)C(=O)N=Nc1c(O)[nH]c2ccccc12)c1ccccc1` (stereo unspecified), for which the activity change, negative = cytotoxicity is -6.54% (inactive).

With `CN(C)c1ccc(C2(O)C(=O)c3ccccc3C2=O)cc1`, the activity change, negative = cytotoxicity is -6.27% (inactive).

Take `O=C(NCCCN1CCOCC1)C(Sc1ccccc1)c1ccccc1` (stereo unspecified): the activity change, negative = cytotoxicity was -12% (inactive).

Regarding `Cc1ccc(SCC(=O)c2sc(-c3ccccc3)nc2C)cc1`, the activity change, negative = cytotoxicity is -11.9% (inactive).

Turning to `CCn1c(SCC(=O)NC2CC2)nnc1-c1ccccc1`, the activity change, negative = cytotoxicity was -6.27% (inactive).

As to `CCS(=O)(=O)c1ccc2oc(SCC(=O)NC(C)C3CC4CCC3C4)nc2c1` (stereo unspecified), the activity change, negative = cytotoxicity was -13.9% (inactive).

Consider `COc1cccc(/C=N/NC(=O)CNC(=O)C(c2ccccc2)c2ccccc2)c1O`, for which the activity change, negative = cytotoxicity is -15.7% (inactive).

Turning to `CCCNC(=O)c1cccc(COc2ccccc2OC)c1`, the activity change, negative = cytotoxicity was -6.42% (inactive).

Regarding `CC(NCC(O)COCc1ccc(Cl)cc1)c1ccccc1` (stereo unspecified), the activity change, negative = cytotoxicity is -15.3% (inactive).

As for `Cc1noc(C)c1S(=O)(=O)Nc1ccc2c(c1)CC(=O)N([C@H](C)CO)C[C@H](C)[C@H](CN(C)S(C)(=O)=O)O2`, the activity change, negative = cytotoxicity is 1.83% (inactive).

For `Cc1ccc(C)c(NS(=O)(=O)c2c(C)nn(C)c2C)c1`, the activity change, negative = cytotoxicity was -1.82% (inactive).

As to `CCOC(=O)c1ccc2c(c1)nc(SCC(=O)N1CCCCC1)n2CC`, the activity change, negative = cytotoxicity was -10.4% (inactive).

Turning to `O=S(=O)(c1ccccc1)N1N=C(c2ccc(O)cc2)CC1c1ccco1` (stereo unspecified), the activity change, negative = cytotoxicity was -18% (inactive).

For `COc1ccc(S(=O)(=O)NC(C)C(=O)Nc2ccccc2F)cc1` (stereo unspecified), the activity change, negative = cytotoxicity was -4.66% (inactive).

As for `COc1cc(-c2oc3cc(O)cc(O)c3c(=O)c2O[C@@H]2O[C@H](COC3O[C@@H](C)[C@H](O)[C@@H](O)[C@H]3O)[C@@H](O)[C@H](O)[C@H]2O)ccc1O` (stereo partly specified), the activity change, negative = cytotoxicity is -2.55% (inactive).

Consider `CC(C)N1CCCC(C)(C(=O)Nc2nc3ccccc3n2C)C1` (stereo unspecified), for which the activity change, negative = cytotoxicity is -8.91% (inactive).

With `CCOc1ccc2nc(SCC(=O)c3ccc(Cl)s3)sc2c1`, the activity change, negative = cytotoxicity is -9.42% (inactive).

As to `O=C1CCC(=O)N1CCc1c[nH]c2ccccc12`, the activity change, negative = cytotoxicity was -6.09% (inactive).

As to `CCOC(=O)c1c(CN(CC)CC)n(C)c2cc(Br)c(O)cc12`, the activity change, negative = cytotoxicity was -10.4% (inactive).

As for `Cc1ccc(N2CC(C(=O)N3CCCCCC3)CC2=O)cc1` (stereo unspecified), the activity change, negative = cytotoxicity is -7.03% (inactive).

For the compound `O=C(NN1CC(C(=O)OCc2ccccc2F)CC1=O)c1ccccc1` (stereo unspecified), the activity change, negative = cytotoxicity was -2.89% (inactive).

As for `S=C(NCCc1ccccc1)Nc1ccccn1`, the activity change, negative = cytotoxicity is -3.47% (inactive).

As to `C[C@H](CO)N1C[C@H](C)[C@@H](CN(C)S(=O)(=O)c2ccc(F)cc2)Oc2ccc(NC(=O)Cc3cn(C)c4ccccc34)cc2C1=O`, the activity change, negative = cytotoxicity was -0.991% (inactive).

Take `COc1ccccc1NS(=O)(=O)c1ccc(C)c(C(=O)NCC2(N(C)C)CCCCC2)c1`: the activity change, negative = cytotoxicity is -11.3% (inactive).

In the case of `N#Cc1c(NCCCO)nc(-c2ccco2)c2c1CCCC2`, the activity change, negative = cytotoxicity was -19.8% (inactive).

As for `CCC(=O)N1CCc2cc(S(=O)(=O)CCC(=O)NCc3ccco3)ccc21`, the activity change, negative = cytotoxicity is -2.4% (inactive).

As for `Clc1cccc(OCCCN2CCCC2)c1Cl`, the activity change, negative = cytotoxicity was -17% (inactive).

For the compound `Cc1noc(C)c1C(=O)OCC(=O)NCCc1ccc(Cl)cc1`, the activity change, negative = cytotoxicity was -14.2% (inactive).

`CCOc1ccc(C(=O)NCC(=O)OCC(=O)N(C)CC(=O)Nc2ccccc2CC)cc1OCC`: the activity change, negative = cytotoxicity was -4.27% (inactive).

`O=C(O)C1C(c2ccccc2)C(C(=O)Oc2ccc(O)cc2)C1c1ccccc1` (stereo unspecified): the activity change, negative = cytotoxicity is -8.75% (inactive).

For the compound `OCCC1CN(Cc2cccn2-c2ccccn2)CCN1C1CCCCC1` (stereo unspecified), the activity change, negative = cytotoxicity was -20.5% (inactive).

In the case of `Cc1nnc(N/N=C/c2ccc(-c3ccccc3F)o2)n1N`, the activity change, negative = cytotoxicity is -8.41% (inactive).
